Source: ChEMBL document CHEMBL3758158, “Discovery of 2-azetidinone and 1H-pyrrole-2,5-dione derivatives containing sulfonamide group at the side chain as potential cholesterol absorption inhibitors” (Bioorg Med Chem Lett, 2016)
Activity calls are given as the source filed them. The rule behind the calls is not given here.

Experiments:
[1] = target: T1, NPC1-like intracellular cholesterol transporter 1 (Homo sapiens) (UniProt Q9UHC9); assay: Inhibition of niemann pick C1-like protein-1 in human Caco-2 cells assessed as cholesterol uptake at 100 uM after 24 hrs by HPLC analysis; format: cell-based
T1 sequence (whole entry): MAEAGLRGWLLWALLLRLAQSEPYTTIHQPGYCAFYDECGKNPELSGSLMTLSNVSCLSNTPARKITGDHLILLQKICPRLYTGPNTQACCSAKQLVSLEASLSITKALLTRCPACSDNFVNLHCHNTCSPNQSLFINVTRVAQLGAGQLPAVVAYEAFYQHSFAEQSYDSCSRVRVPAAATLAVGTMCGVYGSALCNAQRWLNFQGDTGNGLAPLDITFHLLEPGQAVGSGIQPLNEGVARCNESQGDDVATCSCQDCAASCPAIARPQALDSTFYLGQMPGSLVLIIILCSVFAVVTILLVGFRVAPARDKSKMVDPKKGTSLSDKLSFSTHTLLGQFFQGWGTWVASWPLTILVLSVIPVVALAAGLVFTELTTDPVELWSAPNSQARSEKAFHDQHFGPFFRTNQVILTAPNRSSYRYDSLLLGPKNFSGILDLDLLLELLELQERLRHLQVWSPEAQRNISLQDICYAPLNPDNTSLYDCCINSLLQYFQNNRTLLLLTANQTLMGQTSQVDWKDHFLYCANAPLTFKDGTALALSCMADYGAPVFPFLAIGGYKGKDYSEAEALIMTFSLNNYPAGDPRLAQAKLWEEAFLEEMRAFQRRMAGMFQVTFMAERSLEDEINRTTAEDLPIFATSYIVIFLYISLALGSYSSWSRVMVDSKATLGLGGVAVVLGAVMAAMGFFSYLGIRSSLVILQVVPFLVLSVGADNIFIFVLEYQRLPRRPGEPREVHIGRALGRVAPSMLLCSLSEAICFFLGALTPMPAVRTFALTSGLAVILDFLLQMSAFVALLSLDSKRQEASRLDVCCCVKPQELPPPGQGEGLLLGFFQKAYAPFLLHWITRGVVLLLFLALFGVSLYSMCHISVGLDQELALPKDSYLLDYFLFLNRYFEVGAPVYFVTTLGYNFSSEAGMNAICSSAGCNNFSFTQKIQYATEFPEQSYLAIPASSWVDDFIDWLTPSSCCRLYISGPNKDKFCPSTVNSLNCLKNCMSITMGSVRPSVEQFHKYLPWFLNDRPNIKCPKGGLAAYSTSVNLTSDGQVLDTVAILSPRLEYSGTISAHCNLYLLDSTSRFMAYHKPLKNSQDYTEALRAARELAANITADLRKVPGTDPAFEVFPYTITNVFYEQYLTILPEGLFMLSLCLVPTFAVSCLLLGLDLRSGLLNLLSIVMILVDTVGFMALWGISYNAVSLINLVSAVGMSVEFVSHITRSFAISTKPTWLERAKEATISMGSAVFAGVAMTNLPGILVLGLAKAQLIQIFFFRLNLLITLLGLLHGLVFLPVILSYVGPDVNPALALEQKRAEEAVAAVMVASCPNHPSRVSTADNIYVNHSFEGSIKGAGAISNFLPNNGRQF

[2] = Cytotoxicity against human HEK293 cells assessed as cell viability after 48 hrs by MTT assay; format: cell-based; settings: read-out: LC50
[3] = Octanol-water partition coefficient, logP of the compound by HPLC analysis; format: physicochemical
[4] = Cytotoxicity against human GES-1 cells assessed as cell viability after 48 hrs by MTT assay; format: cell-based, GES1; settings: read-out: LC50
Hamster [5] = assay: Decrease in total cholesterol level in serum of cholesterol fed hamster model at 50 mg/kg/day, po administered for 7 days measured on day 7 post last dose; format: functional, Cricetinae; design: scale not given: the % may be the effect or the level left
Hamster [6] = assay: Decrease in low density lipoprotein cholesterol level in serum of cholesterol fed hamster model at 50 mg/kg/day, po administered for 7 days measured on day 7 post last dose; format: functional, Cricetinae; design: scale not given: the % may be the effect or the level left
Hamster [7] = assay: Toxicity in cholesterol fed hamster model assessed as change in body weight at 50 mg/kg/day, po administered for 7 days measured during compound dosing; format: organism-based; settings: cricetinae, in vivo, 168 h
Hamster [8] = assay: Decrease in triglyceride level in serum of cholesterol fed hamster model at 50 mg/kg/day, po administered for 7 days measured on day 7 post last dose; format: functional, Cricetinae; design: scale not given: the % may be the effect or the level left
Hamster [9] = assay: Decrease in free fatty acid level in serum of cholesterol fed hamster model at 50 mg/kg/day, po administered for 7 days measured on day 7 post last dose; format: functional, Cricetinae; design: scale not given: the % may be the effect or the level left
Hamster [10] = assay: Effect on triglyceride level in cholesterol fed hamster liver at 50 mg/kg/day, po administered for 7 days measured on day 7 post last dose; format: ADME, organism-based; settings: cricetinae, in vivo, 168 h
Hamster [11] = assay: Increase in nitric oxide synthase level in serum of cholesterol fed hamster at 50 mg/kg/day, po administered for 7 days measured on day 7 post last dose; format: functional, organism-based; settings: Cricetinae
Hamster [12] = assay: Increase in nitric oxide level in serum of cholesterol fed hamster at 50 mg/kg/day, po administered for 7 days measured on day 7 post last dose; format: functional, organism-based; settings: Cricetinae
Hamster [13] = assay: Increase in proportion of high density lipoprotein cholesterol to total cholesterol in serum of cholesterol fed hamster at 50 mg/kg/day, po administered for 7 days measured on day 7 post last dose; format: functional, Cricetinae
Hamster [14] = assay: Effect on total cholesterol level in cholesterol fed hamster liver at 50 mg/kg/day, po administered for 7 days measured on day 7 post last dose; format: ADME, organism-based; settings: cricetinae, in vivo, 168 h
Hamster [15] = assay: Toxicity in cholesterol fed hamster model assessed as decrease in body weight at 50 mg/kg/day, po administered for 7 days measured for 3 days during compound dosing; format: organism-based; settings: cricetinae, in vivo, 72 h

| SMILES | inhibition [1] | CC50 at 48 h [2] [µM] | logP [3] | CC50 at 48 h [4] [µM] | also measured |
| --- | --- | --- | --- | --- | --- |
| CCc1ccc(S(=O)(=O)NCCC[C@H]2C(=O)N(c3ccc(C)cc3)[C@@H]2c2ccc(NS(C)(=O)=O)cc2)cc1 | Active | > 100 | 3.4 | > 100 | – |
| O=C1C(c2ccc(O)cc2)=C(c2ccc(F)cc2)C(=O)N1CCCCNS(=O)(=O)c1ccc(C(F)(F)F)cc1 | Active | – | – | – | – |
| Cc1ccc(N2C(=O)[C@H](CCCNS(=O)(=O)c3ccc(OC(F)(F)F)cc3)[C@H]2c2ccc([N+](=O)[O-])cc2)cc1 | 47.9% | > 100 | ≥ 4.4 | 56.8 | – |
| Cc1ccc(N2C(=O)[C@H](CCCNS(=O)(=O)c3cccs3)[C@H]2c2ccc([N+](=O)[O-])cc2)cc1 | Active | – | – | – | – |
| Cc1ccc(N2C(=O)[C@H](CCCNS(=O)(=O)c3ccc(OC(F)(F)F)cc3)[C@H]2c2ccc(NS(=O)(=O)c3ccc(C)cc3)cc2)cc1 | Active | > 100 | 3.4 | > 100 | – |
| CCc1ccc(S(=O)(=O)NCCC[C@H]2C(=O)N(c3ccc(C)cc3)[C@@H]2c2ccc(NS(=O)(=O)c3ccc(C)cc3)cc2)cc1 | Active | 42.9 | 3.4 | 92.9 | – |
| Cc1ccc(N2C(=O)[C@H](CCCNS(=O)(=O)c3ccc(OC(F)(F)F)cc3)[C@H]2c2ccc(NS(C)(=O)=O)cc2)cc1 | 41.4% | > 100 | 3.4 | > 100 | Activity (Hamster [5]): 25.7%; Activity (Hamster [6]): 17.8%; Activity (Hamster [7]): Non-toxic; Activity (Hamster [8]): 25.3%; Activity (Hamster [9]): 21.4%; Activity (Hamster [10]): Non-toxic; Activity (Hamster [11]): Active; Activity (Hamster [12]): Active; Activity (Hamster [13]): 42.9%; Activity (Hamster [14]): Non-toxic |
| O=C1C(c2ccc(O)cc2)=C(c2ccc(F)cc2)C(=O)N1CCCCNS(=O)(=O)c1ccc(OC(F)(F)F)cc1 | Active | – | – | – | – |
| O=C1[C@H](CC[C@H](O)c2ccc(F)cc2)[C@@H](c2ccc(O)cc2)N1c1ccc(F)cc1 [EZETIMIBE] | – | 54.6 | 3.4 | 61.3 | Activity (Hamster [15]): Toxic; Activity (Hamster [5]): 30.2%; Activity (Hamster [6]): 24.8%; Activity (Hamster [8]): 36%; Activity (Hamster [9]): 29.5%; Activity (Hamster [13]): 56% |
| CCc1ccc(S(=O)(=O)NCCC[C@H]2C(=O)N(c3ccc(C)cc3)[C@@H]2c2ccc([N+](=O)[O-])cc2)cc1 | Active | > 100 | ≥ 4.4 | > 100 | – |
